Each block holds one compound with its values, some of them ahead of it.
Assays:
[1] = system: skin of an albino rabbit; experiment: Primary irritation of the skin of an albino rabbit; format: in vivo; details: 0.3 ml, intact and abraded area, 24 hours
Description: The primary irritation of the skin of an albino rabbit was determined by adhering 0.3 ml of a test agent on a lint cloth patch, applying the cloth to an intact area and an abraded area of the skin of the back of the albino rabbit, and evaluating the skin reactions at these two areas after a lapse of 24 hours. Then, an overall evaluation was made.

[2] = Stabilizing effect on octanal (APHA color); format: physicochemical; details: 37° C, 1 month; original APHA 15; 50% controlling agent added or octanal alone
Description: Octanal was selected as a single perfume, and the stabilizing effect of the perfume controlling agent was determined.
Amount of Perfume Controlling Agent: 50% based on the octanal (in the case of both DIBA and DIAA)
Test Temperature and Period: 37° C, one month (checked every week)
Items Evaluated: Acid value (AV), carbonyl value (COV), APHA color
In the test, a 100 ml brown bottle boiled in water for 12 hours was used, and the head space of the bottle was purged with nitrogen gas after the octanal had been introduced into the bottle.
Specifically, the color of a solution obtained by diluting 1 ml of a standard original color liquid (octanal) with water exactly to a volume of 100 ml is taken as APHA No. 5, and the APHA color number is increased by a multiple of 5 (as 10, 15, 20 . . . ) for every 1 ml increase of the original liquid.

[3] = Acute oral toxicity (LD50); details: for LD50: acute oral toxicity; for Acute toxicity compared with conventional perfume controlling agents: conclusion from Table 1
[4] = system: skin of a guinea pig; experiment: Cumulative irritation on the skin of a guinea pig; format: in vivo; details: 0.3 ml three times at 24 hour intervals, intact skin
Description: The cumulative irritation on the skin of a guinea pig was evaluated by coating 0.3 ml of a test agent on intact skin of the guinea pig and judging the skin reaction after a lapse of 24 hours, then coating the test agent in an amount of 0.3 ml on the same site twice, each at 24 hour intervals, and judging the reaction of the skin after a lapse of 72 hours (after coating three times).

[5] = system: Pseudomonas aeruginosa; experiment: Microorganism assimilation; details: for OD (turbidity): 660 nm; for Assimilation by microorganism: conclusion from Table 8
[6] = Fixing effect: HS-GC (II), analysis of volatilized portion after standing 15 minutes; format: physicochemical; details: for Analysis of Volatilized Portion after Standing 15 Minutes (HS-GC (II) Method): controlling agent 15%, model perfume 5%
Description: (§1) Then, the fixing effect was evaluated by a second head space gas chromatographic (II) method (HS-GC (II)). Specifically, a perfume containing 0.7 g of a perfume controlling agent was coated on a sheet of paper having a predetermined thickness, area (11.5 × 7.5 cm), and weight (about 2.9 g). The coated paper was allowed to stand for 15 minutes in an open space in a room (6 × 4 × 2.5 m) maintained at a humidity of 50% at a ventilation rate of 1,500 m^3 /hr. The paper was then transferred into a 1,000 ml Erlenmeyer flask, and the flask was tightly sealed. After a lapse of 15 minutes, the volatilized portion was collected and analyzed by gas chromatography under the conditions shown Table A above. Furthermore, the residue on the paper was extracted with acetone, and analyzed by gas chromatography using conditions shown in Table B below.
(§2) The composition of the model perfume used was as follows:
Model Perfume: 5% by weight
95% Ethanol: 95% by weight
The composition of the perfume containing a perfume controlling agent was as follows:
Perfume Controlling Agent: 15% by weight
95% Ethanol: 80% by weight

[7] = Fixing effect: analysis of residue on paper after standing 15 minutes; format: physicochemical
Description: as §1
Column: 5% FFAP (free fatty acid polyester; a trade name for a product of Nippon Chromato Co., Ltd.) on diatomaceous earth (2m)
Column Temperature: 80° C (5 minutes, isothermal) to 220° C (4° C/min.)
Injector Temperature: 260° C
Detector Temperature: 260° C
(§3) Detector: Flame Ionization Detector
(§4) Carrier Gas: He (40 ml/min.)
as §2
The values shown in Table 5 above were obtained by calculating the areas of the perfumes while the area of musk ketone measured by gas chromatography was taken as 1. (This calculating procedure was adopted because musk ketone has a high boiling point, and scarcely volatilizes at 30° C.)

[8] = Fixing effect: head space gas chromatographic (I) method (HS-GC (I)); format: physicochemical; details: 35° C, 60 minutes
Description: A model perfume formulation was prepared using eight typical perfumes having different chemical structures, and the fixing effect of a perfume controlling agent was evaluated.
The fixing effect of the perfume controlling agent was determined using a head space gas chromatographic (I) method (to be abbreviated hereinafter as HS-GC (I) method). Specifically, 0.5 g of a perfume containing the perfume controlling agent was placed in an Erlenmeyer flask, and after sealing, the flask was allowed to stand at 35° C for 60 minutes.
Column: 3% polyethylene glycol having a molecular weight of about 20,000 on diatomaceous earth (2m)
Column Temperature: -40° C (5 minutes, isothermal) flushed to 80° C and then to 200° C (4° C/min.)
Injector Temperature: 250° C
Detector Temperature: 250° C
as §3, §4

Structure (SMILES): CC(C)CCOC(=O)CCCCC(=O)OCCC(C)C (single isomer, unassigned) [DIAA, diisoamyl adipate]
Primary irritation of the skin [1]: did not exhibit irritating effects
APHA color of octanal [2]: about 30 APHA
LD50 [3]: > 25 mL/kg
Acute toxicity compared with conventional perfume controlling agents [3]: equal to, or lower than, other conventional perfume controlling agents
Cumulative irritation on the skin [4]: did not exhibit irritating effects
pH ([5]; 0 days elapsed): 6.90
Number of Living Cells ([5]; 2 days elapsed): 1.6 × 10^6
pH ([5]; 2 days elapsed): 4.74
OD (turbidity) ([5]; 2 days elapsed): 0.105
Number of Living Cells ([5]; 7 days elapsed): < 10^2
pH ([5]; 7 days elapsed): 4.40
OD (turbidity) ([5]; 7 days elapsed): 0.05
Number of Living Cells ([5]; 14 days elapsed): < 10^2
pH ([5]; 14 days elapsed): 4.30
OD (turbidity) ([5]; 14 days elapsed): 0.055
Assimilation by microorganism [5]: assimilated very well

Structure (SMILES): CC(C)COC(=O)CCCCC(=O)OCC(C)C [DIBA, diisobutyl adipate]
Analysis of Volatilized Portion after Standing 15 Minutes (HS-GC (II) Method) ([6]; Citral (not present: 3.5%)): 1.3%
Analysis of Volatilized Portion after Standing 15 Minutes (HS-GC (II) Method) ([6]; Limonene (not present: 2.6%)): 45.9%
Analysis of Volatilized Portion after Standing 15 Minutes (HS-GC (II) Method) ([6]; Linalool (not present: 45.2%)): 29.7%
Analysis of Volatilized Portion after Standing 15 Minutes (HS-GC (II) Method) ([6]; Linalyl Acetate (not present: 39.0%)): 16.4%
Analysis of Volatilized Portion after Standing 15 Minutes (HS-GC (II) Method) ([6]; Musk ketone (not present: 0.0%)): 0.0%
Analysis of Volatilized Portion after Standing 15 Minutes (HS-GC (II) Method) ([6]; Pinene (not present: 0.2%)): 2.4%
Volatility and fixing ability ([6]; conclusion from Tables 3, 4 and 5): balanced volatility and fixing ability like DEP and BB
Primary irritation of the skin [1]: did not exhibit irritating effects
Analysis of Residue on Paper after Standing 15 Minutes (Area Ratio) ([7]; Citral (not present: 1.5), area of musk ketone taken as 1): 2
Analysis of Residue on Paper after Standing 15 Minutes (Area Ratio) ([7]; Limonene (not present: 0.3), area of musk ketone taken as 1): 0.6
Analysis of Residue on Paper after Standing 15 Minutes (Area Ratio) ([7]; Linalool (not present: 6.4), area of musk ketone taken as 1): 9.5
Analysis of Residue on Paper after Standing 15 Minutes (Area Ratio) ([7]; Linalyl Acetate (not present: 5.1), area of musk ketone taken as 1): 8.5
Analysis of Residue on Paper after Standing 15 Minutes (Area Ratio) ([7]; Musk Ketone (reference, taken as 1; not present: 1.0)): 1
Analysis of Residue on Paper after Standing 15 Minutes (Area Ratio) ([7]; Pinene (not present: 0.0), area of musk ketone taken as 1): 0
Head Space Analysis of the Perfume after Adding 50% of DIBA ([8]; Benzyl Acetate, content 11.0% (alone 12.5%)): 12.6%
Head Space Analysis of the Perfume after Adding 50% of DIBA ([8]; Geraniol, content 16.5% (alone 0.9%)): 0.5%
Head Space Analysis of the Perfume after Adding 50% of DIBA ([8]; Lily Aldehyde, content 27.5% (alone 0.4%)): 0.2%
Head Space Analysis of the Perfume after Adding 50% of DIBA ([8]; Limonene, content 5.5% (alone 53.4%)): 57.5%
Head Space Analysis of the Perfume after Adding 50% of DIBA ([8]; Linalool, content 11.0% (alone 15.0%)): 12.8%
Head Space Analysis of the Perfume after Adding 50% of DIBA ([8]; Linalyl Acetate, content 11.0% (alone 4.1%)): 0.1%
Head Space Analysis of the Perfume after Adding 50% of DIBA ([8]; Nonanal, content 1.1% (alone […])): 2.1%
Head Space Analysis of the Perfume after Adding 50% of DIBA ([8]; Rose P, content 16.5% (alone 5.1%)): 4.4%
APHA color of octanal [2]: about 30 APHA
LD50 [3]: 12.3 mL/kg
Acute toxicity compared with conventional perfume controlling agents [3]: equal to, or lower than, other conventional perfume controlling agents
Cumulative irritation on the skin [4]: did not exhibit irritating effects
pH ([5]; 0 days elapsed): 6.94
Number of Living Cells ([5]; 2 days elapsed): 2.3 × 10^7
pH ([5]; 2 days elapsed): 4.72
OD (turbidity) ([5]; 2 days elapsed): 0.152
Number of Living Cells ([5]; 7 days elapsed): 3 × 10^2
pH ([5]; 7 days elapsed): 4.42
OD (turbidity) ([5]; 7 days elapsed): 0.13
Number of Living Cells ([5]; 14 days elapsed): < 10^2
pH ([5]; 14 days elapsed): 4.40
OD (turbidity) ([5]; 14 days elapsed): 0.115
Assimilation by microorganism [5]: assimilated very well

APHA color of octanal [2]: > 300 APHA
Structure (SMILES): CCCCCCCC=O [octanal]
